In brackets after ≈: the same amount, converted by molar mass.

We go through three molecules from ChEMBL document CHEMBL3046161, “Synthesis of potential antitubercular and antimicrobial s-triazine-based scaffolds via Suzuki cross-coupling reaction” (2013).

Assay [1] deals with Salmonella typhi. In words: Antibacterial activity against Salmonella enterica subsp. enterica serovar Typhi MTCC 733 assessed as growth inhibition at 3.12 to 50 ug/mL after 24 hr by agar disk diffusion method. It is filed as functional.
Assay [2] concerns Klebsiella pneumoniae. In words: Antibacterial activity against Klebsiella pneumoniae MTCC 109 assessed as growth inhibition at 3.12 to 50 ug/mL after 24 hr by agar disk diffusion method. It is filed as functional. For orientation: In agar diffusion tests the substance spreads into inoculated agar from a disc or well.
Assay [3] deals with Klebsiella pneumoniae. The assay can be described thus: Antibacterial activity against Klebsiella pneumoniae MTCC 109 assessed as growth inhibition after 24 hr by agar streak dilution method. The following applies: MTCC 109, 24 h. It is filed as functional.
The test system of assay [4] is Salmonella typhi. In words: Antibacterial activity against Salmonella enterica subsp. enterica serovar Typhi MTCC 733 assessed as growth inhibition after 24 hr by agar streak dilution method. It counts as functional. The following applies: MTCC 733, 24 h.
The subject of assay [5] is Pseudomonas aeruginosa. The assay can be described thus: Antibacterial activity against Pseudomonas aeruginosa MTCC 741 assessed as growth inhibition after 24 hr by agar streak dilution method. It counts as functional. Conditions: MTCC 741, 24 h.
Assay [6] has as its system Escherichia coli. The assay can be described thus: Antibacterial activity against Escherichia coli MTCC 739 assessed as growth inhibition after 24 hr by agar streak dilution method. It is filed as functional. Conditions: MTCC 739, 24 h.
The subject of assay [7] is Bacillus cereus. The assay can be described thus: Antibacterial activity against Bacillus cereus MTCC 430 assessed as growth inhibition after 24 hr by agar streak dilution method. It is filed as functional. Conditions: MTCC 430, 24 h.
The subject of assay [8] is Staphylococcus aureus. The assay can be described thus: Antibacterial activity against Staphylococcus aureus MTCC 96 assessed as growth inhibition after 24 hr by agar streak dilution method. It counts as functional. The following applies: MTCC 96, 24 h.
Assay [9] relates to Mycobacterium tuberculosis. In words: Antimycobacterial activity against Mycobacterium tuberculosis H37Rv assessed as growth inhibition at MIC after 12 to 28 days by Lowenstein and Jensen agar dilution method. It counts as functional. On the technique in general: In agar dilution the substance is mixed into plates at graded concentrations.
Assay [10] concerns Mycobacterium tuberculosis. The assay can be described thus: Antimycobacterial activity against Mycobacterium tuberculosis H37Rv assessed as growth inhibition after 12 to 28 days by Lowenstein and Jensen agar dilution method. It counts as functional.
Assay [11] deals with Mycobacterium tuberculosis. The assay can be described thus: Antimycobacterial activity against Mycobacterium tuberculosis H37Rv assessed as growth inhibition at MIC measured within 10 days by BACTEC MGIT method. It counts as functional.
Assay [12] concerns Mycobacterium tuberculosis. In words: Antimycobacterial activity against Mycobacterium tuberculosis H37Rv assessed as growth inhibition measured within 10 days by BACTEC MGIT method. The following applies: 240 h. It is filed as functional.
Assay [13] concerns Candida albicans. The assay can be described thus: Antifungal activity against Candida albicans MTCC 183 assessed as growth inhibition at 3.12 to 50 ug/mL after 24 hr by agar disk diffusion method. It is filed as functional.
For assay [14], the system named is Aspergillus clavatus. The assay can be described thus: Antifungal activity against Aspergillus clavatus MTCC 1323 assessed as growth inhibition at 3.12 to 50 ug/mL after 24 hr by agar disk diffusion method. It is filed as functional.
Assay [15] concerns Aspergillus fumigatus. The assay can be described thus: Antifungal activity against Aspergillus fumigatus MTCC 343 assessed as growth inhibition at 3.12 to 50 ug/mL after 24 hr by agar disk diffusion method. It is filed as functional.
For assay [16], the system named is Aspergillus niger. In words: Antifungal activity against Aspergillus niger MTCC 282 assessed as growth inhibition at 3.12 to 50 ug/mL after 24 hr by agar disk diffusion method. It counts as functional.
Assay [17] concerns Candida albicans. The assay can be described thus: Antifungal activity against Candida albicans MTCC 183 assessed as growth inhibition after 48 hr by agar streak dilution method. The following applies: MTCC 183, 48 h. It counts as functional.
Assay [18] concerns Aspergillus clavatus. The assay can be described thus: Antifungal activity against Aspergillus clavatus MTCC 1323 assessed as growth inhibition after 48 hr by agar streak dilution method. Conditions: MTCC 1323, 48 h. It is filed as functional.
For assay [19], the system named is Aspergillus fumigatus. The assay can be described thus: Antifungal activity against Aspergillus fumigatus MTCC 343 assessed as growth inhibition after 48 hr by agar streak dilution method. It counts as functional. The following applies: MTCC 343, 48 h.
In assay [20] the test system is Aspergillus niger. The assay can be described thus: Antifungal activity against Aspergillus niger MTCC 282 assessed as growth inhibition after 48 hr by agar streak dilution method. It counts as functional. The following applies: MTCC 282, 48 h.
Assay [21] relates to Shigella flexneri. In words: Antibacterial activity against Shigella flexneri MTCC 1457 assessed as growth inhibition at 3.12 to 50 ug/mL after 24 hr by agar disk diffusion method. It counts as functional.
In assay [22] the test system is Proteus vulgaris. In words: Antibacterial activity against Proteus vulgaris MTCC 1771 assessed as growth inhibition at 3.12 to 50 ug/mL after 24 hr by agar disk diffusion method. It counts as functional.
For assay [23], the system named is Pseudomonas aeruginosa. The assay can be described thus: Antibacterial activity against Pseudomonas aeruginosa MTCC 741 assessed as growth inhibition at 3.12 to 50 ug/mL after 24 hr by agar disk diffusion method. It counts as functional.
For assay [24], the system named is Escherichia coli. In words: Antibacterial activity against Escherichia coli MTCC 739 assessed as growth inhibition at 3.12 to 50 ug/mL after 24 hr by agar disk diffusion method. It counts as functional.
Assay [25] deals with Bacillus cereus. In words: Antibacterial activity against Bacillus cereus MTCC 430 assessed as growth inhibition at 3.12 to 50 ug/mL after 24 hr by agar disk diffusion method. It is filed as functional.
The test system of assay [26] is Staphylococcus aureus. The assay can be described thus: Antibacterial activity against Staphylococcus aureus MTCC 96 assessed as growth inhibition at 3.12 to 50 ug/mL after 24 hr by agar disk diffusion method. It is filed as functional.
The test system of assay [27] is Shigella flexneri. In words: Antibacterial activity against Shigella flexneri MTCC 1457 assessed as growth inhibition after 24 hr by agar streak dilution method. It counts as functional. Conditions: MTCC 1457, 24 h.
Assay [28] has as its system Proteus vulgaris. The assay can be described thus: Antibacterial activity against Proteus vulgaris MTCC 1771 assessed as growth inhibition after 24 hr by agar streak dilution method. It is filed as functional. The following applies: MTCC 1771, 24 h.
Assay [29] concerns Candida albicans. In words: Antifungal activity against Candida albicans MTCC 183 assessed as growth inhibition at 100 ug/disk after 24 hr by agar disk diffusion method. It counts as functional. Conditions: MTCC 183, 24 h, read-out: IZ.
The test system of assay [30] is Aspergillus clavatus. In words: Antifungal activity against Aspergillus clavatus MTCC 1323 assessed as growth inhibition at 100 ug/disk after 24 hr by agar disk diffusion method. It is filed as functional. The following applies: MTCC 1323, 24 h, read-out: IZ.
The subject of assay [31] is Aspergillus fumigatus. In words: Antifungal activity against Aspergillus fumigatus MTCC 343 assessed as growth inhibition at 100 ug/disk after 24 hr by agar disk diffusion method. The following applies: MTCC 343, 24 h, read-out: IZ. It counts as functional.
Assay [32] has as its system Aspergillus niger. In words: Antifungal activity against Aspergillus niger MTCC 282 assessed as growth inhibition at 100 ug/disk after 24 hr by agar disk diffusion method. It counts as functional. The following applies: MTCC 282, 24 h, read-out: IZ.
The subject of assay [33] is Salmonella typhi. In words: Antibacterial activity against Salmonella enterica subsp. enterica serovar Typhi MTCC 733 assessed as growth inhibition at 100 ug/disk after 24 hr by agar disk diffusion method. It is filed as functional. The following applies: MTCC 733, 24 h, read-out: IZ.
Assay [34] deals with Shigella flexneri. The assay can be described thus: Antibacterial activity against Shigella flexneri MTCC 1457 assessed as growth inhibition at 100 ug/disk after 24 hr by agar disk diffusion method. It counts as functional. The following applies: MTCC 1457, 24 h, read-out: IZ.
In assay [35] the test system is Proteus vulgaris. The assay can be described thus: Antibacterial activity against Proteus vulgaris MTCC 1771 assessed as growth inhibition at 100 ug/disk after 24 hr by agar disk diffusion method. It is filed as functional. Conditions: MTCC 1771, 24 h, read-out: IZ.
The test system of assay [36] is Bacillus cereus. The assay can be described thus: Antibacterial activity against Bacillus cereus MTCC 430 assessed as growth inhibition at 100 ug/disk after 24 hr by agar disk diffusion method. It is filed as functional. The following applies: MTCC 430, 24 h, read-out: IZ.
Assay [37] concerns Staphylococcus aureus. In words: Antibacterial activity against Staphylococcus aureus MTCC 96 assessed as growth inhibition at 100 ug/disk after 24 hr by agar disk diffusion method. Conditions: MTCC 96, 24 h, read-out: IZ.
In assay [38] the test system is Klebsiella pneumoniae. The assay can be described thus: microbe, parasite or virus in culture. Conditions: MTCC 109, 24 h, read-out: IZ.
Description: Antibacterial activity against Klebsiella pneumoniae MTCC 109 assessed as growth inhibition at 100 ug/disk after 24 hr by agar disk diffusion method
In assay [39] the test system is Pseudomonas aeruginosa. The assay can be described thus: microbe, parasite or virus in culture. Conditions: MTCC 741, 24 h, read-out: IZ.
Description: Antibacterial activity against Pseudomonas aeruginosa MTCC 741 assessed as growth inhibition at 100 ug/disk after 24 hr by agar disk diffusion method
In assay [40] the test system is Escherichia coli. The assay can be described thus: microbe, parasite or virus in culture. The following applies: MTCC 739, 24 h, read-out: IZ.
Description: Antibacterial activity against Escherichia coli MTCC 739 assessed as growth inhibition at 100 ug/disk after 24 hr by agar disk diffusion method

On to `CCOc1ccc2nc(NC(=O)CNc3ccc(-c4nc(N5CC(C)CC(C)C5)nc(N5CC(C)CC(C)C5)n4)cc3)sc2c1` (stereo unspecified), for which the “inhibition zone (IZ)” value with Salmonella typhi [1] is 19 mm; in the assay with Klebsiella pneumoniae [2] it was 24 mm; in the assay with Candida albicans [13], 25 mm; in the assay with Aspergillus clavatus [14], 16 mm; with Aspergillus fumigatus [15], 16 mm; with Aspergillus niger [16] it was 20 mm. In addition, the “inhibition zone (IZ)” value in the assay with Shigella flexneri [21] came out at 17 mm; in the assay on Proteus vulgaris [22], 26 mm; in the assay with Pseudomonas aeruginosa [23] it was 23 mm; in the assay on Escherichia coli [24], 23 mm; in the assay on Bacillus cereus [25] it was 24 mm; with Staphylococcus aureus [26] it was 23 mm. Besides, the minimal inhibitory concentration (MIC) (as a rule, the smallest concentration in the dilution series that meets the test's criterion for growth inhibition) with Klebsiella pneumoniae [3] worked out at 50 µg/mL (≈ 79.5 µM); with Salmonella typhi [4] it was 50 µg/mL (≈ 79.5 µM); with Pseudomonas aeruginosa [5] it was 12.5 µg/mL (≈ 19.9 µM); with Escherichia coli [6] it was 12.5 µg/mL (≈ 19.9 µM); in the assay on Bacillus cereus [7] it was 25 µg/mL (≈ 39.8 µM); in the assay with Staphylococcus aureus [8], 6.25 µg/mL (≈ 9.94 µM). Moreover, the MIC in assay [10] worked out at 6.25 µg/mL (≈ 9.94 µM); in [12], 6.25 µg/mL (≈ 9.94 µM); in the assay with Candida albicans [17], 12.5 µg/mL (≈ 19.9 µM); with Aspergillus clavatus [18], 50 µg/mL (≈ 79.5 µM); in the assay with Aspergillus fumigatus [19], 50 µg/mL (≈ 79.5 µM); in the assay with Aspergillus niger [20], 25 µg/mL (≈ 39.8 µM). For the same molecule, the minimal inhibitory concentration (MIC) in the assay on Shigella flexneri [27] was determined as 50 µg/mL (≈ 79.5 µM); with Proteus vulgaris [28] it was 12.5 µg/mL (≈ 19.9 µM). Moreover, the “growth inhibition (GI)” value in assay [9] and in assay [11] was 99% in each case.

For `CC(=O)N1CCN(c2ccc(OCC3COC(Cn4ccnc4)(c4ccc(Cl)cc4Cl)O3)cc2)CC1` (stereo unspecified) [KETOCONAZOLE], the zone of inhibition at 100 µg/disc was determined as 33 mm in the assay on Candida albicans [29], 31 mm in the assay on Aspergillus clavatus [30], 29 mm in the assay on Aspergillus fumigatus [31] and 30 mm with Aspergillus niger [32]. The MIC in the assay on Candida albicans [17] is 1.56 µg/mL (≈ 2.94 µM); in the assay with Aspergillus clavatus [18], 0.78 µg/mL (≈ 1.47 µM); in the assay with Aspergillus fumigatus [19], 0.78 µg/mL (≈ 1.47 µM); in the assay with Aspergillus niger [20], 1.56 µg/mL (≈ 2.94 µM).

Take `O=C(O)c1cn(C2CC2)c2cc(N3CCNCC3)c(F)cc2c1=O` [CIPROFLOXACIN]: the zone of inhibition at 100 µg/disc in the assay with Salmonella typhi [33] was 30 mm; in the assay with Shigella flexneri [34], 32 mm; in the assay with Proteus vulgaris [35], 31 mm; with Bacillus cereus [36] it was 31 mm; in the assay on Staphylococcus aureus [37] it was 30 mm; with Klebsiella pneumoniae [38] it was 33 mm. For the same molecule, the zone of inhibition at 100 µg/disc in the assay with Pseudomonas aeruginosa [39] was 33 mm; with Escherichia coli [40], 32 mm. In addition, the MIC worked out at 0.78 µg/mL (≈ 2.35 µM) with Klebsiella pneumoniae [3]; 0.39 µg/mL (≈ 1.18 µM) with Salmonella typhi [4]; 0.78 µg/mL (≈ 2.35 µM) in the assay with Pseudomonas aeruginosa [5]; 0.39 µg/mL (≈ 1.18 µM) in the assay on Bacillus cereus [7]; 1.56 µg/mL (≈ 4.71 µM) in the assay with Staphylococcus aureus [8]; 1.56 µg/mL (≈ 4.71 µM) in the assay on Shigella flexneri [27]. Besides, the MIC with Proteus vulgaris [28] turned out to be 0.39 µg/mL (≈ 1.18 µM).
